Results reported in PubChem BioAssay (NCI).
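1) Cells in 96-well plates. 2) Compound, 48 h, 5 concentrations. 3) Linear interpolation between surrounding doses. 4) Unreached endpoint = highest concentration. Here, GI50 denotes the concentration required for 50% inhibition of growth. TGI: concentration producing complete growth inhibition.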

Columns and labels:
Experiment in all cases: growth of human tumour cells (NCI), 48 h
M14 melanoma = tested on: M14 melanoma
T-47D breast = tested on: T-47D breast
MALME-3M melanoma = tested on: MALME-3M melanoma
SN12C renal = tested on: SN12C renal
ACHN renal = tested on: ACHN renal
CCRF-CEM leukemia = tested on: CCRF-CEM leukemia
SK-MEL-28 melanoma = tested on: SK-MEL-28 melanoma
PC-3 prostate = tested on: PC-3 prostate
HCC-2998 colon = tested on: HCC-2998 colon
SR leukemia = tested on: SR leukemia
RXF 393 renal = tested on: RXF 393 renal
TK-10 renal = tested on: TK-10 renal
HS 578T breast = tested on: HS 578T breast
BT-549 breast = tested on: BT-549 breast
SNB-75 CNS = tested on: SNB-75 CNS
HOP-62 NSCLC = tested on: HOP-62 NSCLC
CAKI-1 renal = tested on: CAKI-1 renal
HT29 colon = tested on: HT29 colon
SK-MEL-2 melanoma = tested on: SK-MEL-2 melanoma
IGROV1 ovarian = tested on: IGROV1 ovarian
UO-31 renal = tested on: UO-31 renal
SK-MEL-5 melanoma = tested on: SK-MEL-5 melanoma
MDA-MB-435 = tested on: MDA-MB-435
EKVX NSCLC = tested on: EKVX NSCLC
NCI-H226 lung = tested on: NCI-H226 lung
MDA-MB-468 breast = tested on: MDA-MB-468 breast
UACC-257 melanoma = tested on: UACC-257 melanoma
MOLT-4 leukemia = tested on: MOLT-4 leukemia
OVCAR-4 ovarian = tested on: OVCAR-4 ovarian
HCT-15 colon = tested on: HCT-15 colon
KM12 colon = tested on: KM12 colon
HCT-116 colon = tested on: HCT-116 colon
NCI-H460 lung = tested on: NCI-H460 lung
SNB-19 CNS = tested on: SNB-19 CNS
SF-268 CNS = tested on: SF-268 CNS
RPMI-8226 leukemia = tested on: RPMI-8226 leukemia
NCI-H522 lung = tested on: NCI-H522 lung
OVCAR-3 ovarian = tested on: OVCAR-3 ovarian
A549 NSCLC = tested on: A549 NSCLC
U251 CNS = tested on: U251 CNS
LOX IMVI melanoma = tested on: LOX IMVI melanoma
OVCAR-8 ovarian = tested on: OVCAR-8 ovarian
SK-OV-3 ovarian = tested on: SK-OV-3 ovarian
SF-295 CNS = tested on: SF-295 CNS
DU-145 prostate = tested on: DU-145 prostate
NCI-H23 lung = tested on: NCI-H23 lung
OVCAR-5 ovarian = tested on: OVCAR-5 ovarian
A498 renal = tested on: A498 renal
K-562 leukemia = tested on: K-562 leukemia
SF-539 CNS = tested on: SF-539 CNS
SW-620 colon = tested on: SW-620 colon
HL-60(TB) leukemia = tested on: HL-60(TB) leukemia
HOP-92 NSCLC = tested on: HOP-92 NSCLC
UACC-62 melanoma = tested on: UACC-62 melanoma
COLO 205 colon = tested on: COLO 205 colon
786-0 renal = tested on: 786-0 renal
MCF7 breast = tested on: MCF7 breast
NCI/ADR-RES ovarian = tested on: NCI/ADR-RES ovarian
MDA-MB-231 breast = tested on: MDA-MB-231 breast

SMILES: Cc1cc(N=C2NC(=O)/C(=C/c3cc(C(C)(C)C)c(O)c(C(C)(C)C)c3)S2)n[nH]1
- GI50 (M14 melanoma): 4.58 µM
- TGI (M14 melanoma): 19.2 µM
- GI50 (T-47D breast): 2.41 µM
- TGI (T-47D breast): 24.9 µM
- GI50 (MALME-3M melanoma): 2.7 µM
- TGI (MALME-3M melanoma): 14.2 µM
- GI50 (SN12C renal): 2.7 µM
- TGI (SN12C renal): 14.8 µM
- GI50 (ACHN renal): 3.25 µM
- TGI (ACHN renal): 14.4 µM
- GI50 (CCRF-CEM leukemia): 1.9 µM
- TGI (CCRF-CEM leukemia): 14.9 µM
- GI50 (SK-MEL-28 melanoma): 4.67 µM
- TGI (SK-MEL-28 melanoma): 17.1 µM
- GI50 (PC-3 prostate): 1.78 µM
- TGI (PC-3 prostate): 22.3 µM
- GI50 (HCC-2998 colon): 4.22 µM
- TGI (HCC-2998 colon): 16.4 µM
- GI50 (SR leukemia): 3.33 µM
- TGI (SR leukemia): 40.6 µM
- GI50 (RXF 393 renal): 2.19 µM
- TGI (RXF 393 renal): 11.8 µM
- GI50 (TK-10 renal): 6.19 µM
- TGI (TK-10 renal): 23.8 µM
- GI50 (HS 578T breast): 1.98 µM
- TGI (HS 578T breast): 13.2 µM
- GI50 (BT-549 breast): 2.63 µM
- TGI (BT-549 breast): 12.2 µM
- GI50 (SNB-75 CNS): 4.6 µM
- TGI (SNB-75 CNS): 20.1 µM
- GI50 (HOP-62 NSCLC): 3.67 µM
- TGI (HOP-62 NSCLC): 21.1 µM
- GI50 (CAKI-1 renal): 2.71 µM
- TGI (CAKI-1 renal): 19.1 µM
- GI50 (HT29 colon): 4.79 µM
- TGI (HT29 colon): 25 µM
- GI50 (SK-MEL-2 melanoma): 4.35 µM
- TGI (SK-MEL-2 melanoma): 18.8 µM
- GI50 (IGROV1 ovarian): 2.47 µM
- TGI (IGROV1 ovarian): 16.8 µM
- GI50 (UO-31 renal): 2.1 µM
- TGI (UO-31 renal): 14.5 µM
- GI50 (SK-MEL-5 melanoma): 1.63 µM
- TGI (SK-MEL-5 melanoma): 3.66 µM
- GI50 (MDA-MB-435): 4.04 µM
- TGI (MDA-MB-435): 16.4 µM
- GI50 (EKVX NSCLC): 1.9 µM
- TGI (EKVX NSCLC): 10.8 µM
- GI50 (NCI-H226 lung): 1.89 µM
- TGI (NCI-H226 lung): 15.1 µM
- GI50 (MDA-MB-468 breast): 2.55 µM
- TGI (MDA-MB-468 breast): 13.2 µM
- GI50 (UACC-257 melanoma): 4.63 µM
- TGI (UACC-257 melanoma): 19 µM
- GI50 (MOLT-4 leukemia): 2.39 µM
- TGI (MOLT-4 leukemia): 14 µM
- GI50 (OVCAR-4 ovarian): 3.09 µM
- TGI (OVCAR-4 ovarian): 17.7 µM
- GI50 (HCT-15 colon): 1.5 µM
- TGI (HCT-15 colon): 13.2 µM
- GI50 (KM12 colon): 4.28 µM
- TGI (KM12 colon): 18 µM
- GI50 (HCT-116 colon): 1.88 µM
- TGI (HCT-116 colon): 12.8 µM
- GI50 (NCI-H460 lung): 0.755 µM
- TGI (NCI-H460 lung): 10.5 µM
- GI50 (SNB-19 CNS): 3.26 µM
- TGI (SNB-19 CNS): 15.8 µM
- GI50 (SF-268 CNS): 4.69 µM
- TGI (SF-268 CNS): 24.2 µM
- GI50 (RPMI-8226 leukemia): 2.43 µM
- TGI (RPMI-8226 leukemia): 13.3 µM
- GI50 (NCI-H522 lung): 5.35 µM
- TGI (NCI-H522 lung): 20.5 µM
- GI50 (OVCAR-3 ovarian): 3.68 µM
- TGI (OVCAR-3 ovarian): 18.1 µM
- GI50 (A549 NSCLC): 2.61 µM
- TGI (A549 NSCLC): 18.3 µM
- GI50 (U251 CNS): 2.15 µM
- TGI (U251 CNS): 13.6 µM
- GI50 (LOX IMVI melanoma): 2.29 µM
- TGI (LOX IMVI melanoma): 14.5 µM
- GI50 (OVCAR-8 ovarian): 3.69 µM
- TGI (OVCAR-8 ovarian): 19.6 µM
- GI50 (SK-OV-3 ovarian): 5.58 µM
- TGI (SK-OV-3 ovarian): 21.1 µM
- GI50 (SF-295 CNS): 1.07 µM
- TGI (SF-295 CNS): 10.8 µM
- GI50 (DU-145 prostate): 4.87 µM
- TGI (DU-145 prostate): > 100 µM
- GI50 (NCI-H23 lung): 2.45 µM
- TGI (NCI-H23 lung): 13.3 µM
- GI50 (OVCAR-5 ovarian): 5.61 µM
- TGI (OVCAR-5 ovarian): 19.4 µM
- GI50 (A498 renal): 1.49 µM
- TGI (A498 renal): 11.1 µM
- GI50 (K-562 leukemia): 2.47 µM
- TGI (K-562 leukemia): > 100 µM
- GI50 (SF-539 CNS): 4.6 µM
- TGI (SF-539 CNS): 16.4 µM
- GI50 (SW-620 colon): 3.71 µM
- TGI (SW-620 colon): 14.2 µM
- GI50 (HL-60(TB) leukemia): 4.27 µM
- TGI (HL-60(TB) leukemia): 23.8 µM
- GI50 (HOP-92 NSCLC): 1.87 µM
- TGI (HOP-92 NSCLC): 14.7 µM
- GI50 (UACC-62 melanoma): 3.58 µM
- TGI (UACC-62 melanoma): 15.3 µM
- GI50 (COLO 205 colon): 4.41 µM
- TGI (COLO 205 colon): 18.9 µM
- GI50 (786-0 renal): 3.81 µM
- TGI (786-0 renal): 15.7 µM
- GI50 (MCF7 breast): 1.93 µM
- TGI (MCF7 breast): 12.2 µM
- GI50 (NCI/ADR-RES ovarian): 1.35 µM
- TGI (NCI/ADR-RES ovarian): 14.3 µM
- GI50 (MDA-MB-231 breast): 5.7 µM
- TGI (MDA-MB-231 breast): 20 µM
